The text below walks through data of patent publication EP2975030B1, “DIHYDROPYRIDAZINE-3,5-DIONE DERIVATIVE” (Chugai Seiyaku Kabushiki Kaisha, priority 2013, dated 2014).

This test deals with rat small-intestinal brush border membrane vesicles. Put plainly: Inhibitory effect on 33PO4 uptake into rat small-intestinal brush border membrane vesicles (rapid filtration method). The format is biochemical, Wistar female rat. Particulars: 1 µM test compound; 33PO4 uptake into rat small-intestinal BBMVs, 60 seconds. An outline of the steps:
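Uptake was terminated by ice-cold 110 mM NaCl, 1 mM KH2PO4, 10 mM HEPES (pH 7.5) buffer and immediate suction filtration, then washing. Using rat small-intestinal BBMVs, retained 33PO4 was quantified by liquid scintillation counting as transport activity.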

For `COc1c(C#N)ncnc1-c1cc(C(F)(F)F)ccc1NC(=O)C1=C(O)[C@@]2(C)CCCN2N(Cc2cccc(F)c2F)C1=O` [Example 25], the “Rate of uptake inhibition (%) (1 µM)” value was found to be 82%.
Next, `CN1N(Cc2ccc(OCCN(CCO)CCO)c(F)c2F)C(=O)C(C(=O)Nc2ccc(C(F)(F)F)cc2-c2cc(C(F)(F)F)ncn2)=C(O)C12CCC2` [Example 351]: 22%; `COc1cncc(-c2cc(C(F)(F)F)ccc2NC(=O)C2=C(O)[C@@]3(C)CCCN3N(Cc3cccc(F)c3F)C2=O)c1` [Example 81]: 74%; `CN1N(Cc2cccc(F)c2F)C(=O)C(C(=O)Nc2ccc(C(F)(F)F)cc2-c2cc(C#N)ncn2)=C(O)C1(C)C` [Example 303]: 42%.
For the compound `CN1N(Cc2ccc(OCCN3CCOCC3)c(F)c2F)C(=O)C(C(=O)Nc2ccc(Cl)cc2-c2cc(C(F)(F)F)ncn2)=C(O)C12CCCCC2` [Example 297], the “Rate of uptake inhibition (%) (1 µM)” value is 36%.
`COCC(C)(C)N(C)CCOc1ccc(CN2C(=O)C(C(=O)Nc3ccc(C(F)(F)F)cc3-c3cc(C(F)(F)F)ncn3)=C(O)C3(CCCC3)N2C)c(F)c1F` [Example 372]: the “Rate of uptake inhibition (%) (1 µM)” value worked out at 38%.
On to `CCC1(CC)C(O)=C(C(=O)Nc2ccc(Cl)cc2-c2ccc(C(F)(F)F)nc2)C(=O)N(Cc2ccc(OCCN3CCOCC3)c(F)c2F)N1C` [Example 294], for which the “Rate of uptake inhibition (%) (1 µM)” value was 40%.
For the compound `COC(=O)CN(C)CCOc1ccc(CN2C(=O)C(C(=O)Nc3ccc(C(F)(F)F)cc3-c3cc(C(F)(F)F)ncn3)=C(O)C3(CCCC3)N2C)c(F)c1F` [Example 368], the “Rate of uptake inhibition (%) (1 µM)” value is reported as 26%.
Next, `CN1N(Cc2ccc(OCCCCCCC(=O)O)c(F)c2F)C(=O)C(C(=O)Nc2ccc(C(F)(F)F)cc2-c2cc(C(F)(F)F)ncn2)=C(O)C12CCCC2` [Example 335]: 30%; `C[C@]12CCCN1N(Cc1ccc(Cl)cc1)C(=O)C(C(=O)Nc1cc(F)c(Br)c(F)c1)=C2O` [Example 223]: 77%.
The figure for `COc1cccc(-c2cc(C(F)(F)F)ccc2NC(=O)C2=C(O)[C@@]3(C)CCCN3N(Cc3ccc(C#CCOCCCCO)c(F)c3F)C2=O)c1OC` [Example 123, (4aR)-1-[[2,3-Difluoro-4-[3-(4-hydroxybutoxy)prop-1-ynil]phenyl]methyl]-N-[2-(2.3-dimethoxyphenyl)-4-(trifluoromethyl)phenyl]-4-hydroxy-4a-methyl-2-oxo-6,7-dihydro-5H-pyrrolo[1,2-b]pyridazine-3-carboxamide] is 87%.
For the compound `COCCOc1cc(NC(=O)C2=C(O)[C@@]3(C)CCCN3N(Cc3cccc(F)c3F)C2=O)c(-c2cccc(OC)c2OC)cc1C(F)(F)F` [Example 92], the “Rate of uptake inhibition (%) (1 µM)” value turned out to be 81%.
As to `CN1N(Cc2ccc(OCCN3CCOCC3)c(F)c2F)C(=O)C(C(=O)Nc2ccc(Cl)cc2-c2ccc(C(F)(F)F)nc2)=C(O)C12CCCC2` [Example 288], the “Rate of uptake inhibition (%) (1 µM)” value is on record as 61%.
For `C[C@]12CCCN1N(Cc1cc(F)cc(F)c1)C(=O)C(C(=O)Nc1ccc(C(F)(F)F)cc1-c1ccc(C(F)(F)F)nc1)=C2O` [Example 171], the “Rate of uptake inhibition (%) (1 µM)” value is given as 78%.
Turning to `CN1[C@@H](C(C)(C)C)C(O)=C(C(=O)Nc2ccc(Br)c(C(F)(F)F)n2)C(=O)N1Cc1cccc(F)c1F` [Example 242], the “Rate of uptake inhibition (%) (1 µM)” value stood at 69%.
`C[C@@H]1COC[C@H](C)N1CCOc1ccc(CN2C(=O)C(C(=O)Nc3ccc(C(F)(F)F)cc3-c3cc(C(F)(F)F)ncn3)=C(O)C3(CCCC3)N2C)c(F)c1F` [Example 370]: the “Rate of uptake inhibition (%) (1 µM)” value was determined as 41%.
`CN1[C@@H](C(C)(C)C)C(O)=C(C(=O)Nc2ccc(Br)c(C(F)(F)F)c2)C(=O)N1Cc1cccc(F)c1F` [Example 243]: the “Rate of uptake inhibition (%) (1 µM)” value is recorded as 63%.
Turning to `C[C@]12CCCN1N(Cc1cccc(F)c1F)C(=O)C(C(=O)Nc1ccc(Cl)cc1F)=C2O` [Example 76], the “Rate of uptake inhibition (%) (1 µM)” value is listed as 77%.
Turning to `C[C@]12CCCN1N(Cc1ccc(CCCOCCCO)c(F)c1F)C(=O)C(C(=O)Nc1ccc(C(F)(F)F)cc1-c1ccc(C(F)(F)F)nc1)=C2O` [Example 141], the “Rate of uptake inhibition (%) (1 µM)” value is 83%.
Consider `CN1[C@@H](C(C)(C)C)C(O)=C(C(=O)Nc2cccc(C(F)(F)F)n2)C(=O)N1Cc1cccc(F)c1F` [Example 244], for which the “Rate of uptake inhibition (%) (1 µM)” value was determined as 71%.
As to `CN1N(Cc2ccc(OCCN3CCOCC3)c(F)c2F)C(=O)C(C(=O)Nc2ccc(C(F)(F)F)cc2-c2cc(C(F)(F)F)ncn2)=C(O)C1(C)C` [Example 313, 2-[[2,3-Difluoro-4-(2-morpholin-4-ylethoxy)phenyl]methyl]-5-hydroxy-1,6,6-trimethyl-3-oxo-N-[4-(trifluoromethyl)-2-[6-(trifluoromethyl)pyrimidin-4-yl]phenyl]pyridazine-4-carboxamide], the “Rate of uptake inhibition (%) (1 µM)” value turned out to be 65%.
Regarding `CN1CCC(Oc2ccc(CN3C(=O)C(C(=O)Nc4ccc(C(F)(F)F)cc4-c4cc(C(F)(F)F)ncn4)=C(O)C4(CCC4)N3C)c(F)c2F)CC1` [Example 411], the “Rate of uptake inhibition (%) (1 µM)” value was determined as 32%.
Consider `C[C@@H]1COC[C@H](C)N1CCOc1ccc(CN2C(=O)C(C(=O)Nc3ccc(C(F)(F)F)cc3-c3cc(C(F)(F)F)ncn3)=C(O)C3(CCC3)N2C)c(F)c1F` [Example 344], for which the “Rate of uptake inhibition (%) (1 µM)” value is given as 58%.
The figure for `Cc1cc(NC(=O)C2=C(O)[C@@H]3CC(C)(C)CN3N(Cc3cccc(F)c3)C2=O)c(C(F)(F)F)o1` [Example 3, (4aS)-1-[(3-Fluorophenyl)methyl]-4-hydroxy-6,6-dimethyl-N-[5-methyl-2-(trifluoromethyl)furan-3-yl]-2-oxo-5,7-dihydro-4aH-pyrrolo[1,2-b]pyridazine-3-carboxamide] is 11%.
Next, `CN1N(Cc2ccc(OCCCCCOC[C@H](O)CO)c(F)c2F)C(=O)C(C(=O)Nc2ccc(C(F)(F)F)cc2-c2cc(C(F)(F)F)ncn2)=C(O)C12CCC2` [Example 391]: 42%.
Next, `Cc1cccc(CN2C(=O)C(C(=O)Nc3ccc(C(F)(F)F)cc3-c3ccc(C(F)(F)F)nc3)=C(O)[C@@]3(C)CCCN23)c1F` [Example 205]: 86%; `C[C@]12CCCN1N(Cc1cccc(F)c1Cl)C(=O)C(C(=O)Nc1cc(F)c(Br)c(F)c1)=C2O` [Example 174]: 87%.
As to `CN1[C@@H](C(C)(C)C)C(O)=C(C(=O)Nc2cc(F)c(Br)c(F)c2)C(=O)N1Cc1cccc(F)c1F` [Example 240], the “Rate of uptake inhibition (%) (1 µM)” value stood at 72%.
Take `C[C@]12CCCN1N(Cc1cccc(F)c1F)C(=O)C(C(=O)Nc1ccc(Br)cc1-c1ccc(Cl)nc1)=C2O` [Example 122, (4aR)-N-[4-Bromo-2-(6-chloropyridin-3-yl)phenyl]-1-[(2,3-difluorophenyl)methyl]-4-hydroxy-4a-methyl-2-oxo-6,7-dihydro-5H-pyrrolo[1,2-b]pyridazine-3-carboxamide]: the “Rate of uptake inhibition (%) (1 µM)” value turned out to be 82%.
In the case of `C[C@]12CCCN1N(Cc1ccc(F)c(F)c1)C(=O)C(C(=O)Nc1cc(F)c(Br)c(F)c1)=C2O` [Example 191], the “Rate of uptake inhibition (%) (1 µM)” value worked out at 87%.
With `CN1N(Cc2cccc(F)c2F)C(=O)C(C(=O)Nc2ccc(Cl)cc2-c2ccc(C(F)(F)F)nc2)=C(O)C12CCC2` [Example 256], the “Rate of uptake inhibition (%) (1 µM)” value is given as 79%.
